In ChEMBL document CHEMBL1150305, “Synthesis and in vitro PDT activity of miscellaneous porphyrins with amino acid and uracil” (2008):

Test: Photocytotoxicity against human Ec9706 cells after 2.5 hrs irradiation measured after 24 hrs incubation in dark by MTT assay
Assay type: functional

Q: With `N[C@@H](Cc1ccccc1)C(=O)Nc1ccc(-c2c3nc(c(-c4ccc(NC(=O)[C@@H](N)Cc5ccccc5)cc4)c4ccc([nH]4)c(-c4ccccc4)c4nc(c(-c5ccccc5)c5ccc2[nH]5)C=C4)C=C3)cc1` as the molecule, how does the “inhibition (INH)” value read?
A: 96.13%

Q: For `O=C(Cn1cc(F)c(=O)[nH]c1=O)Nc1ccc(-c2c3nc(c(-c4ccc(NC(=O)Cn5cc(F)c(=O)[nH]c5=O)cc4)c4ccc([nH]4)c(-c4ccccc4)c4nc(c(-c5ccccc5)c5ccc2[nH]5)C=C4)C=C3)cc1`, which “inhibition (INH)” value is on record?
A: 100%

Q: For `CC(C)(C)OC(=O)N[C@@H](Cc1ccccc1)C(=O)Nc1ccc(-c2c3nc(c(-c4ccc(NC(=O)[C@H](Cc5ccccc5)NC(=O)OC(C)(C)C)cc4)c4ccc([nH]4)c(-c4ccccc4)c4nc(c(-c5ccccc5)c5ccc2[nH]5)C=C4)C=C3)cc1`, which “inhibition (INH)” value is on record?
A: 100%

Q: For `Nc1ccc(-c2c3nc(c(-c4ccc(N)cc4)c4ccc([nH]4)c(-c4ccccc4)c4nc(c(-c5ccccc5)c5ccc2[nH]5)C=C4)C=C3)cc1`, which “inhibition (INH)” value is on record?
A: 66.6%

Q: For `Nc1ccc(-c2c3nc(c(-c4ccc(NC(=O)[C@@H](N)Cc5ccccc5)cc4)c4ccc([nH]4)c(-c4ccccc4)c4nc(c(-c5ccccc5)c5ccc2[nH]5)C=C4)C=C3)cc1`, which “inhibition (INH)” value is on record?
A: 37.94%

Q: With `N[C@@H](Cc1ccccc1)C(=O)Nc1ccc(-c2c3nc(c(-c4ccc(NC(=O)Cn5cc(F)c(=O)[nH]c5=O)cc4)c4ccc([nH]4)c(-c4ccccc4)c4nc(c(-c5ccccc5)c5ccc2[nH]5)C=C4)C=C3)cc1` as the molecule, how does the “inhibition (INH)” value read?
A: 69.45%

Q: With `Nc1ccc(-c2c3nc(c(-c4ccc(NC(=O)Cn5cc(F)c(=O)[nH]c5=O)cc4)c4ccc([nH]4)c(-c4ccccc4)c4nc(c(-c5ccccc5)c5ccc2[nH]5)C=C4)C=C3)cc1` as the molecule, how does the “inhibition (INH)” value read?
A: 97.09%

Q: For `CC(C)(C)OC(=O)N[C@@H](Cc1ccccc1)C(=O)Nc1ccc(-c2c3nc(c(-c4ccc(NC(=O)Cn5cc(F)c(=O)[nH]c5=O)cc4)c4ccc([nH]4)c(-c4ccccc4)c4nc(c(-c5ccccc5)c5ccc2[nH]5)C=C4)C=C3)cc1`, which “inhibition (INH)” value is on record?
A: 88.65%

Q: For `CC(C)(C)OC(=O)N[C@@H](Cc1ccccc1)C(=O)Nc1ccc(-c2c3nc(c(-c4ccc(N)cc4)c4ccc([nH]4)c(-c4ccccc4)c4nc(c(-c5ccccc5)c5ccc2[nH]5)C=C4)C=C3)cc1`, which “inhibition (INH)” value is on record?
A: 47.21%
